How the values were obtained:
Format in all cases: in vivo, rat
[1] = tested on: GnRH; assay: GnRH specific antibody titers by ELISA in serum of rats immunized with GnRH-KLH conjugate plus adjuvant; conditions: for GnRH antibody titers versus squalane emulsion only (NS): rats that received 8 mg saccharide compound, FIG. 4C; for GnRH antibody titers, dose dependence: male Wistar rats, adjuvant 0.008-8 mg per dose, GnRH-KLH conjugate, FIG. 4A-B; for GnRH antibody titers versus adjuvant without saccharide (NS, group 11): rats treated with 0.08-8 mg sulpho-lipo-trisaccharide
Experimental: (§1) The sulpho-lipo based adjuvants were tested in different doses varying from 0.008-8 mg per dose. The adjuvants were tested in combination with a GnRH-KLH conjugate with 0.7 μg conjugated GnRH per dose. Adjuvanticity of the adjuvants was compared with the positive control adjuvant, sulpho-lipo-sucrose (disaccharide with one sulphate ester group and seven lauroyl acid ester groups, S1L7-Su) and with negative control adjuvant consisting of an squalane-in-water emulsion without saccharide compound and one group receiving PBS only.
Vaccines 1-13 were formulated by adding equal volume of adjuvant (comprising the saccharide compounds as shown in table 2) to the water phase (containing 0.7 μg conjugated GnRH). Vaccine 14 consists of PBS only. The following vaccines were prepared:
(§2) Male Wistar rats, 10 weeks of age, were housed with 3 rats per cage. Rats had ad libitum access to food en water. Rats were immunized at day 0, 14 and 28, according to the experimental design (Table 2) with 400 μl vaccine comprising 200 μl water phase and 200 μl adjuvant. Two intramuscular injections (100 μl each) were injected at the left and right inner thigh and 2×100 μl was injected subcutaneously in the neck region. Each group consists of 5 rats.
(§3) Blood samples for serum were collected from all animals prior to the immunizations and at day 41 and 56
GnRH specific antibodies were measured by ELISA. Plates (96 wells) were precoated with 0.2% glutardialdehyde in phosphate buffer (pH 5) for 3 hours at room temperature, washed with 0.1 M phosphate buffer (pH 8) and coated with 100 μl per well of a solution containing 10 μg GnRH (Pepscan Presto, Lelystad, The Netherlands) per ml phosphate buffer (pH 8) and incubated for 3 hours at 37° C. Coated plates were washed with 0.05% Tween-80. Serum samples were diluted (1/10) in PEM (1% Tween-80 with 4% horse serum). This dilution was further diluted in the 96-well plate (100 μl per well, 8 steps) and incubated 1 hour at 37° C. After washing with 0.05% Tween-80, 100 μl of goat-anti-rat antiserum conjugated with peroxidase in PEM was added to the wells. Plates were incubated for 1 h at 37° C. and washed 12 times with 0.05% Tween-80. Subsequently, 150 μl of a substrate solution containing 2,2-azino-bis-(3-benzthiazoline-6-sulphonic acid) (ABTS) plus H2O2 was added to the wells of the plates. Plates were incubated for 45 minutes at ambient room temperature and absorbance was measured at 405 nm. Antibody titer was expressed as the 10 log of the dilution factor that gives an optical density of 4 times background (approx. 100).

[2] = tested on: testosterone; assay: Serum testosterone levels (Testosterone EIA) of immunized rats
Experimental: as §1, §2, §3
Serum testosterone levels were measured using a commercially available Testosterone EIA (Beckman Coulter, Woerden, The Netherlands) according to the instructions of the manufacturer.

[3] = Rise of mean body temperature (rectal) after immunization; conditions: 8 mg; for Mean body temperature (MBT): FIG. 6C
Experimental: as §2
At least once daily clinical observations were made in all animals. Mean body temperature (MBT) was determined for all animals before and after each immunization by rectal temperature. Mean body temperature per group (MBT) are depicted as to preimmunization levels FIG. 6.

[4] = Injection site reactions (tissue swelling) after immunization; conditions: 8 mg
Experimental: as §2
Before vaccination the injection sites were assessed for the presence of abnormalities or existing local reactions. If such abnormalities or local reactions were absent, the animal was injected on that site. After each immunization, injection sites were inspected for tissue swelling. Size of subcutaneous injection sites was measured (diameter in mm). Since the intramuscular injection site reactions in the hind leg is difficult to determine, only the presence of intramuscular injections sites (tissue swelling) was determined and expressed in arbitrary values (present=10 mm, not present=0 mm) Scores of injection site reactions were added up per rat for the four injection sites at each inspection, means per group were calculated The results thereof are presented in FIG. 7.

[5] = from 0.08 mg sulpho-lipo-trisaccharide onwards, FIG. 5A-B

CCCCCCCCCCCC(=O)OC[C@H]1O[C@H](OC[C@H]2O[C@H](O[C@]3(COC(=O)CCCCCCCCCCC)O[C@H](COC(=O)CCCCCCCCCCC)[C@@H](OC(=O)CCCCCCCCCCC)[C@@H]3OC(=O)CCCCCCCCCCC)[C@H](OC(=O)CCCCCCCCCCC)[C@@H](OC(=O)CCCCCCCCCCC)[C@@H]2OC(=O)CCCCCCCCCCC)[C@H](OC(=O)CCCCCCCCCCC)[C@@H](OC(=O)CCCCCCCCCCC)[C@H]1OC(=O)CCCCCCCCCCC [Example L11-Ra, Lipo-Raffinose]
GnRH antibody titers versus squalane emulsion only (NS) [1]: substantially higher
Serum testosterone levels ([2]; 8 mg, FIG. 5C): induced decreasing testosterone levels
Mean body temperature (MBT), any increase ([3]; after immunization): did not induce any increase in MBT
Adverse effects at the site of injection [4]: did not induce any adverse effects at the site of injection

Sulpho-Lipo-Maltotriose [Example S1L10-Ma]
GnRH antibody titers, dose dependence [1]: dose dependent antibody titers against GnRH
GnRH antibody titers versus squalane emulsion only (NS) [1]: substantially higher
GnRH antibody titers versus adjuvant without saccharide (NS, group 11) [1]: substantially higher
Serum testosterone levels [2, 5]: dramatic decline of serum testosterone levels

Sulpho-Lipo-Raffinose [Example S1L10-Ra]
GnRH antibody titers, dose dependence [1]: dose dependent antibody titers against GnRH
GnRH antibody titers versus squalane emulsion only (NS) [1]: substantially higher
GnRH antibody titers versus adjuvant without saccharide (NS, group 11) [1]: substantially higher
Serum testosterone levels [2, 5]: dramatic decline of serum testosterone levels

sulpho-lipo-sucrose [Example S1L7-Su-8]
Mean body temperature (MBT) ([3]; 3 hours post vaccination): slightly higher increase in MBT than the trisaccharide compounds
Mean body temperature (MBT) ([3]; 21 hours after vaccination): still increased
Injection site reactions at final inspection ([4]; 5 days after immunization): still significant injection site reactions were present
Injection site reactions, course of size ([4]; FIG. 7C): increased in size up to day 4
Injection site reactions, size relative to sulpho-lipo-trisaccharides ([4]; FIG. 7C): more than 4 times

— US9327020B2, “Trisaccharide derivates, and their use as adjuvants” (Immunovo B.V., priority 2010, dated 2016)
